# Measured values as given in patent US12102685B2, “Immodulator peptides covalently modified with small molecules” (priority 2020, dated 2024).
# Marks after values point to notes of the source that are not given here. Peptide text beside a SMILES is read from it.
# Legend:
# [1] = test system: COL1 in HFF-1 dermal fibroblasts; assay: Collagen-1 ELISA in HFF-1 dermal fibroblasts (x11A); format: cell-based; settings: peptide 2 uM, 72 hour; control (buffer) = 100
# Procedure: (§1) Immune modulation functions of immodulator peptides have potential untility in the field of cosmetics. HFF-1 cell line was obtained from American Type Culture Collection (ATCC). Cells were grown in a T-75 flask in DMEM Medium containing 10% fetal bovine serum and penicillin-streptomycin at 37° C. in a humidified, 5% CO2 incubator. Cells ([…], 2,000 cells/well) were plated in a 96-well plate and incubated overnight at 37° C. in a humidified, 5% CO2 incubator. Next day, […] of compounds were added (quadruplicate wells). After 72 hour incubation with the compound, supernatants were collected for Collagen-1 ELISA assay and cell viability was measured in a luminometer after the addition of […] CellTiterGlo reagent (Promega Inc, Madison, WI) as recommended by the manufacturer.
# Collagen stimulating activity of immodulator peptides in HFF-1 dermal fibroblasts. Peptides were added to cells at 2 uM. COL1 immunoreactivity was measured in the supernatants of cultured cells by ELISA using a rabbit monoclonal anti-COL1 primary antibody (Abcam, Cambridge, MA). Control (buffer) value of immunoreactivity was set to 100.
# A375 cells = assay: A375 cell viability, CellTiterGlo (x10A); format: cell-based; settings: 72 hours
# Procedure: as §1, with “have great” for “have”, “of cancer. A375” for “of cosmetics. HFF-1”, “(ATCC). They” for “(ATCC). Cells”, “compound,” for “compound, supernatants were collected for Collagen-1 ELISA assay and”
# Experiment x10A. Anti-cancer activity of immodulator peptides on A375 cells. A 96-well plate was seeded with 2,000 A375 cells per well in DMEM medium containing 10% FBS and PenStrep. After 24 hrs at 37 deg C., compounds and peptides were added (each treatment done in quadruplicate). After a further 72 hours incubation, 100 uL/well of CTG assay reagent purchased from Promega Inc. (Madison, WI) was added. Plate was read after 10 minutes, as recommended by the manufacturer. Peptides were added at 2 uM. The results of this experiment are shown below, expressed as percent survival ofA375 cells.
# [2] = Iron-binding competition assay with labeled IM3AVD (x2E d); settings: labeled IM3AVD plus 10x unlabeled peptide; no competing peptide = 100
# Procedure: (§2) Experiments were conducted by the procedure described above. Ferric iron-charged NTA-coated 96-well plates were used as described. 1 ug/well immodulator peptide complexed to Alexa-488-labeled streptavidin in PBS buffer was added (60 min at room temperature). The plate was washed and counted in a standard fluorometer (excitation/emission: 485/525 nm). The results (fluorescence) show improved iron-binding by the three peptides extended C-terminally by the AVD, (dA)VD, and FVS tripeptides. **p<0.01 vs IM3 control IM3: 200±29; IM4: 45±37**; IM5: 130±77; IM3AVD: 434±29**; IM3dAVD: 418±28**; IM3FVS: 371±33** • (c) Competition assay. The same procedure was used as the preceding experiment, except that 375 ng/well labeled IM3 peptide was used, plus 10× of the indicated unlabeled peptide. ‘No competing peptide’ control value was set to 100. *p<0.05 vs “no peptide” control Competing Peptide/Fluorescence • None: 100±38; IM4: 125±26; IM3: 63±27*; IM5: 40±14*; IM3AVD: 10±28* • (d) Competition assay. The same procedure was used as the preceding experiment, except that labeled IM3AVD peptide was used. **p<0.01 vs “no competing peptide” control • None: 100±9; IM4: 144±44; IM3: 35±16**; IM5: 30±19**; IM3AVD: 9±19** • (e) The same procedure was used as the preceding experiment, except that each peptide was labeled with Alexa-488-labeled streptavidin in PBS buffer and used separately. Binding to IM3 was set to =100. *p<0.05, **p<0.01 vs IM3 control. (Labeled Peptide/Fluorescence) IM1: 1.8±0.4**; IM2: 3.0±1.8**; IM3: 100.0±16.8; IM4: 7.2±1.7*; IM5: 86.7±6.4; IM6: 85.9±14.9; IM3AVD:137.7±11.8*; IM3dAVD:147.4±22.9*; IM3FVS: 101.5±10.5.
# [3] = Strength of binding to iron, plate assay (x2E b); settings: 1 ug/well peptide complexed to Alexa-488-streptavidin; ferric iron
# Procedure: Immodulator peptides were extended C-terminally by three amino acids, to include a valine residue that is highly conserved in the “thyroglobulin type 1 motif”. The reasoning behind this attempt is that a longer conserved sequence might lead to a tighter fold overall, which might in turn result in increased metal-binding avidity. • (b) Strength of binding to iron was evaluated by plate assay.
# as §2
fluorescence of labeled IM3AVD with competing peptide [2],fluorescence (iron binding) [3],SMILES,COL1 immunoreactivity in supernatant [1],"percent survival of A375 cells (A375 cells; peptide 2 uM, Buffer)",percent survival of A375 cells (A375 cells; peptide 2 uM + Kin1400 4 uM (RIG-I agonist))
–,–,CSCC[C@H](NC(=O)[C@H](CO)NC(=O)[C@@H](NC(=O)[C@H](CCC(=O)O)NC(=O)[C@H](CS)NC(=O)[C@H](CCC(N)=O)NC(=O)[C@H](CCCNC(=N)N)NC(=O)[C@H](CO)NC(=O)[C@H](Cc1c[nH]cn1)NC(=O)[C@H](Cc1ccc(O)cc1)NC(=O)[C@H](Cc1ccccc1)NC(=O)CNC(=O)[C@H](CC(N)=O)NC(=O)[C@@H](N)CCCCN)[C@@H](C)O)C(=O)N[C@@H](CC(=O)O)C(=O)NCC(=O)N[C@@H](CCC(=O)O)C(=O)N[C@@H](C)C(=O)NCC(=O)N[C@@H](CC(C)C)C(=O)N[C@@H](CS)C(=O)N[C@@H](Cc1c[nH]c2ccccc12)C(=O)O [IM1] (H-KNGFYHSRQCETSMDGEAGLCW-OH; N-terminus and C-terminus assumed),98,102.1%,–
–,–,CSCC[C@H](NC(=O)[C@H](CCCCN)NC(=O)[C@H](CS)NC(=O)[C@H](CCC(N)=O)NC(=O)[C@H](CCCCN)NC(=O)[C@H](CC(C)C)NC(=O)[C@H](CC(N)=O)NC(=O)[C@H](Cc1ccc(O)cc1)NC(=O)[C@H](CC(C)C)NC(=O)CNC(=O)[C@H](Cc1c[nH]cn1)NC(=O)[C@@H](N)CCCCN)C(=O)N[C@@H](CO)C(=O)N[C@@H](CC(C)C)C(=O)N[C@@H](CC(N)=O)C(=O)NCC(=O)N[C@@H](CCC(N)=O)C(=O)N[C@@H](CCCNC(=N)N)C(=O)NCC(=O)N[C@@H](CCC(=O)O)C(=O)N[C@@H](CS)C(=O)N[C@@H](Cc1c[nH]c2ccccc12)C(=O)O [IM2],109,99.0%,–
144±44,45±37,CC(C)C[C@H](NC(=O)[C@H](C)NC(=O)[C@@H]1CCCN1C(=O)[C@H](Cc1c[nH]cn1)NC(=O)[C@H](CS)NC(=O)[C@H](CCC(N)=O)NC(=O)[C@H](CCCCN)NC(=O)[C@@H]1CCCN1C(=O)[C@H](Cc1c[nH]cn1)NC(=O)[C@H](Cc1ccccc1)NC(=O)[C@H](CC(N)=O)NC(=O)CNC(=O)[C@H](CC(N)=O)NC(=O)[C@@H](N)CCCNC(=N)N)C(=O)N[C@@H](CC(=O)O)C(=O)NCC(=O)N[C@@H](CCC(N)=O)C(=O)N[C@@H](CCCNC(=N)N)C(=O)NCC(=O)N[C@@H](CCCCN)C(=O)N[C@@H](CS)C(=O)N[C@@H](Cc1c[nH]c2ccccc12)C(=O)O [IM4] (H-RNGNFHPKQCHPALDGQRGKCW-OH; N-terminus and C-terminus assumed),105,98.8%,–
30±19,130±77,CC[C@H](C)[C@H](NC(=O)CNC(=O)[C@H](CCCNC(=N)N)NC(=O)[C@H](CCCCN)NC(=O)[C@H](CCCNC(=N)N)NC(=O)CNC(=O)[C@H](CCCNC(=N)N)NC(=O)[C@H](CO)NC(=O)[C@@H]1CCCN1C(=O)[C@H](CCCCN)NC(=O)[C@H](CS)NC(=O)[C@H](CCC(N)=O)NC(=O)[C@H](CCCCN)NC(=O)[C@H](CCCNC(=N)N)NC(=O)[C@H](CCCCN)NC(=O)[C@H](Cc1ccc(O)cc1)NC(=O)[C@H](Cc1ccccc1)NC(=O)CNC(=O)[C@H](CCCCN)NC(=O)[C@@H](N)CCCNC(=N)N)C(=O)N[C@@H](CS)C(=O)N[C@@H](Cc1c[nH]c2ccccc12)C(=O)O [IM5] (H-RKGFYKRKQCKPSRGRKRGICW-OH; N-terminus and C-terminus assumed),93,–,–

SMILES,fluorescence of labeled IM3AVD with competing peptide [2],fluorescence (iron binding) [3],COL1 immunoreactivity in supernatant [1],"percent survival of A375 cells (A375 cells; peptide 2 uM, Buffer)",percent survival of A375 cells (A375 cells; peptide 2 uM + Kin1400 4 uM (RIG-I agonist))
N=C(N)NCCC[C@H](NC(=O)CNC(=O)[C@H](CCCCN)NC(=O)[C@H](CO)NC(=O)[C@@H]1CCCN1C(=O)[C@H](CCCNC(=N)N)NC(=O)[C@H](CS)NC(=O)[C@H](CCC(N)=O)NC(=O)[C@H](CCCCN)NC(=O)[C@H](CCCCN)NC(=O)[C@H](CCCCN)NC(=O)[C@H](Cc1ccc(O)cc1)NC(=O)[C@H](Cc1ccccc1)NC(=O)CNC(=O)[C@H](CCCCN)NC(=O)[C@@H](N)CCCCN)C(=O)N[C@@H](CCCCN)C(=O)N[C@@H](CCCNC(=N)N)C(=O)NCC(=O)N[C@@H](Cc1ccccc1)C(=O)N[C@@H](CS)C(=O)N[C@@H](Cc1c[nH]c2ccccc12)C(=O)O [IM3] (H-KKGFYKKKQCRPSKGRKRGFCW-OH; N-terminus and C-terminus assumed),35±16,200±29,101,100.3%,62.2** percent
